Assay results taken from US20150119410A1, “BIOMARKERS OF RESPONSE TO NAE INHIBITORS” (MILLENNIUM PHARMACEUTICALS, INC., priority 2011, published 2015).

Assays:
Test in all cases: Cell line panel 1 viability screen
Format in all cases: cell-based
[1] = tested on: CAL-27; settings: CAL-27 (upper aerodigestive tract)
Method: (§1) To support clinical development and identify potential biomarkers of tumor sensitivity or resistance, two large cancer cell line panels (Panel 1, N=653 (McDermott et al. (2007) PNAS 104:19936-19941); Panel 2, N=240 (O'Day et al. (2010) Fourth AACR International Conference on Molecular Diagnostics in Cancer Therapeutic Development)) were treated with MLN4924 and cell viability data (IC50, EC50, and POC—Percentage of Control) were generated.
(§2) Panel 1 (McDermott et al., supra). The cell lines were exposed to three MLN4924 concentrations (20 nM, 200 nM, and 2 μM) for 72 hours. Viability, i.e., cell number, was quantified by measuring fluorescence of a cell-permeant nucleic acid stain. Mean of triplicate values for each sample were taken and compared to DMSO control to calculate percentage of control. In the results, control or no activity value is given a value of about 1, sensitivity is indicated by a value less than 1, with 0 as death of the entire cell population and resistance indicated by a value greater than 1. A continuum of viability values was obtained for each concentration, so some values were selected as cut-offs for final determination of sensitivity or resistance. For example, median POC values of less than the median value of all POC's recorded in the panel (<0.34) indicated sensitivity, values of 0.34 to 0.75 indicated borderline sensitivity, values greater than the 3rd quartile of all POC's in the panel (>0.75) insensitivity or resistance. […] Final judgment of cell line as sensitive, insensitive or resistant was determined by its viability at 2 μM.

[2] = tested on: CAL-62; settings: CAL-62 (thyroid)
Method: as §1, §2

[3] = tested on: CFPAC-1; settings: CFPAC-1 (pancreas)
Method: as §1, §2

[4] = tested on: FADU; settings: FADU (upper aerodigestive tract)
Method: as §1, §2

[5] = tested on: HGC-27; settings: Homo sapiens; HGC-27 (stomach); 2 μM MLN4924, 72 hours; DMSO control about 1
Method: as §1, §2

[6] = tested on: KP-4; settings: KP-4 (pancreas)
Method: as §1, §2

[7] = tested on: KYSE-150; settings: KYSE-150 (oesophagus)
Method: as §1, §2

[8] = tested on: LK-2; settings: Homo sapiens; LK-2 (lung); 2 μM MLN4924, 72 hours; DMSO control about 1
Method: as §1, §2

[9] = tested on: LS-174T; settings: LS-174T (large_intestine)
Method: as §1, §2

[10] = tested on: MDA-MB-231; settings: MDA-MB-231 (breast)
Method: as §1, §2

[11] = tested on: MDA-MB-468; settings: MDA-MB-468 (breast)
Method: as §1, §2

[12] = tested on: MKN28; settings: Homo sapiens, MKN-28; MKN28 (stomach); 2 μM MLN4924, 72 hours; DMSO control about 1
Method: as §1, §2

[13] = tested on: NCI-N87; settings: NCI-N87 (stomach)
Method: as §1, §2

[14] = tested on: NCl-H1975; settings: NCl-H1975 (lung); 2 μM MLN4924, 72 hours; DMSO control about 1
Method: as §1, §2

[15] = tested on: NCl-H630; settings: NCl-H630 (intestine); 2 μM MLN4924, 72 hours; DMSO control about 1
Method: as §1, §2

[16] = tested on: PANC-08-13; settings: PANC-08-13 (pancreas)
Method: as §1, §2

[17] = tested on: S-117; settings: S-117 (soft_tissue)
Method: as §1, §2

[18] = tested on: SK-OV-3; settings: Homo sapiens; SK-OV-3 (ovary); 2 μM MLN4924, 72 hours; DMSO control about 1
Method: as §1, §2

[19] = tested on: SW 1116; settings: Homo sapiens; SW 1116 (intestine); 2 μM MLN4924, 72 hours; DMSO control about 1
Method: as §1, §2

[20] = tested on: SW620
Method: as §1, §2

[21] = tested on: SW626; settings: Homo sapiens; SW626 (ovary); 2 μM MLN4924, 72 hours; DMSO control about 1
Method: as §1, §2

[22] = tested on: UMC-11; settings: UMC-11 (lung)
Method: as §1, §2

[23] = Homo sapiens, 2 μM MLN4924, 72 hours, DMSO control about 1

Q: What does the source list for NS(=O)(=O)OC[C@@H]1C[C@@H](n2ccc3c(N[C@H]4CCc5ccccc54)ncnc32)C[C@@H]1O [MLN4924, ((1S,2S,4R)-4-{4-[(1S)-2,3-dihydro-1H-inden-1-ylamino]-7H-pyrrolo[2,3-d]pyrimidin-7-yl}-2-hydroxycyclopentyl)methyl sulphamate]?
A: Phenotype ([1]; SMAD4 mutant): sensitive (median POC values of less than the median value of all POC's recorded in the panel (<0.34) indicated sensitivity); viability at 2 µM [1, 23]: 2.71%; Phenotype ([2]; NF2 mutant): sensitive (median POC values of less than the median value of all POC's recorded in the panel (<0.34) indicated sensitivity); viability at 2 µM [2, 23]: 6.76%; Phenotype ([3]; SMAD4 mutant): sensitive?; viability at 2 µM [3, 23]: 28.2%; Phenotype ([4]; SMAD4 mutant): sensitive (median POC values of less than the median value of all POC's recorded in the panel (<0.34) indicated sensitivity); viability at 2 µM [4, 23]: 7.3%; viability at 2 µM [5]: 12.9%; viability at 2 µM [6, 23]: 5.18%; Phenotype ([6]; SMAD4 mutant): sensitive (median POC values of less than the median value of all POC's recorded in the panel (<0.34) indicated sensitivity); viability at 2 µM [7, 23]: 12.8%; Phenotype ([7]; SMAD4 mutant): sensitive (median POC values of less than the median value of all POC's recorded in the panel (<0.34) indicated sensitivity); viability at 2 µM [8]: 28.9%; viability at 2 µM ([9]; Homo sapiens, LS174T, 2 μM MLN4924, 72 hours, DMSO control about 1): 32.6%; Phenotype ([9]; KDM6A mutant): sensitive (median POC values of less than the median value of all POC's recorded in the panel (<0.34) indicated sensitivity); viability at 2 µM [10, 23]: 52.8%; Phenotype ([10]; NF2 mutant): insensitive (values of 0.34 to 0.75 indicated borderline sensitivity); viability at 2 µM [11, 23]: 29.6%; Phenotype ([11]; SMAD4 mutant): sensitive (median POC values of less than the median value of all POC's recorded in the panel (<0.34) indicated sensitivity); viability at 2 µM [12]: 28.5%; viability at 2 µM [13, 23]: 14.6%; Phenotype ([13]; SMAD4 mutant): sensitive (median POC values of less than the median value of all POC's recorded in the panel (<0.34) indicated sensitivity); viability at 2 µM [14]: 30.5%; viability at 2 µM [15]: 75%; viability at 2 µM [16, 23]: 77.7%; Phenotype ([16]; SMAD4 mutant): resistant (values greater than the 3rd quartile of all POC's in the panel (>0.75) insensitivity or resistance); viability at 2 µM [17, 23]: 64.1%; Phenotype ([17]; NF2 mutant): resistant (values greater than the 3rd quartile of all POC's in the panel (>0.75) insensitivity or resistance); viability at 2 µM [18]: 39.7%; viability at 2 µM [19]: 116%; viability at 2 µM ([20]; Homo sapiens, SW-620, SW620 (intestine), 2 μM MLN4924, 72 hours, DMSO control about 1): 49.3%; Phenotype ([20]; SW620 (large_intestine), SMAD4 mutant): insensitive (values of 0.34 to 0.75 indicated borderline sensitivity); viability at 2 µM [21]: 55.4%; viability at 2 µM [22, 23]: 44.7%; Phenotype ([22]; SMAD4 mutant): insensitive (values of 0.34 to 0.75 indicated borderline sensitivity)
